Measurements reported in ChEMBL document CHEMBL3875233, “Non-kinase targets of protein kinase inhibitors” (Nat Rev Drug Discov, 2017).
pEC50, pIC50, pKd, pKi: −log10 of the molar value.

Tests used:
[1] = target: T1, Bromodomain-containing protein 4 (Homo sapiens, UniProt O60885)
Description: Binding affinity to recombinant human His6-TEV protease-tagged BRD4 bromodomain 1 expressed in bacteria by isothermal titration calorimetric method

[2] = target: T2, Ferrochelatase, mitochondrial (Homo sapiens, UniProt P22830); assay: Stabilization of FECH in human K562 cells after 1 hr by thermal shift assay; type: cell-based
T2 sequence (P22830 whole entry): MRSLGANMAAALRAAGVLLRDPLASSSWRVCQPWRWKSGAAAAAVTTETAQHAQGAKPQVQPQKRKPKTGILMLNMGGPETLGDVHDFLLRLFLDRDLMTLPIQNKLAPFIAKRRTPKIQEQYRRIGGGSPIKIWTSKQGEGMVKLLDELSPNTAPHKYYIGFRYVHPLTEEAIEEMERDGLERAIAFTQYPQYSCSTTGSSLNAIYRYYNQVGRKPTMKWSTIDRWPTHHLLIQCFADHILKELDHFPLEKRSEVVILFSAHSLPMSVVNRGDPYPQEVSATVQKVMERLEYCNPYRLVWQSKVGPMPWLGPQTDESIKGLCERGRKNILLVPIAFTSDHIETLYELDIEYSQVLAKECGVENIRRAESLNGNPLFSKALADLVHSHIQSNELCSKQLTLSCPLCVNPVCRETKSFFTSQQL

[3] = target: Oxidized purine nucleoside triphosphate hydrolase (Homo sapiens, UniProt P36639)
Description: Inhibition of DsRed-fused MTH1 (unknown origin) expressed in HEK293T cells using 8-oxo-dGTP as substrate

[4] = target: T1, Bromodomain-containing protein 4; remark: listed apart in the source
[5] = target: Bromodomain testis-specific protein (Homo sapiens) (UniProt Q58F21)
[6] = target: T3, Phosphatidylinositol 4,5-bisphosphate 3-kinase catalytic subunit delta isoform (Homo sapiens, UniProt O00329); assay: Inhibition of immobilized N-LY294002 bead binding to PI3Kdelta (unknown origin) expressed in HEK293T cells incubated for 1 hr by LC-MS/MS analysis; type: cell-based, HEK-293T
T3 sequence (O00329 whole entry): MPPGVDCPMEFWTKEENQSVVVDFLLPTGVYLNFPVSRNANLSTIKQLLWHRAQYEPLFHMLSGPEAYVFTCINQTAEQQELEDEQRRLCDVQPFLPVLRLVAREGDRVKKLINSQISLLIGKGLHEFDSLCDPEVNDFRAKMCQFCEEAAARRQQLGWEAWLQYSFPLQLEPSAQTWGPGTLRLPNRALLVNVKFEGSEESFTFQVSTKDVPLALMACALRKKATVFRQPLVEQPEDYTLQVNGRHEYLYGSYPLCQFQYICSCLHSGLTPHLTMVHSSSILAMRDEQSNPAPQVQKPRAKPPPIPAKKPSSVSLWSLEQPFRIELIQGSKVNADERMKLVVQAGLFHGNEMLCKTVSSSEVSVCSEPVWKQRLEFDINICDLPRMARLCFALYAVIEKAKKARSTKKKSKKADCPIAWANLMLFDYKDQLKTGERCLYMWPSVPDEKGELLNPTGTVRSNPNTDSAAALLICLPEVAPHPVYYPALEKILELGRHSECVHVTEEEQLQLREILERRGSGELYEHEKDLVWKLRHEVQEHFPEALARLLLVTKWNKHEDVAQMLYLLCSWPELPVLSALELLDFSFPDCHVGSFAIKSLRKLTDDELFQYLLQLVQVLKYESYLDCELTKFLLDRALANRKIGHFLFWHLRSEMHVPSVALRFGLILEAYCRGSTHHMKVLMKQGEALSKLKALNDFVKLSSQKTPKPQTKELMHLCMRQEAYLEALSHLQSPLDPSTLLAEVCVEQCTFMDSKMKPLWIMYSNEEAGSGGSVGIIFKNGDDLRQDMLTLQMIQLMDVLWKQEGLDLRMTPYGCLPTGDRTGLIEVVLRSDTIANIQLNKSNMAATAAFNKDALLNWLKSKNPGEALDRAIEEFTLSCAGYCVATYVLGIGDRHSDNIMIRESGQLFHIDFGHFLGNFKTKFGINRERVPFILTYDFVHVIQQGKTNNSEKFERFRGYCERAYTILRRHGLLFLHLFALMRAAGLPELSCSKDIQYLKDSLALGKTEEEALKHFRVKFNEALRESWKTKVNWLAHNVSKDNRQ

[7] = target: T1, Bromodomain-containing protein 4; assay: Inhibition of immobilized N-LY294002 bead binding to C-terminal Flag-tagged BRD4 (unknown origin) expressed in HEK293T cell nuclear extract incubated for 1 hr by LC-MS/MS analysis; parameters: species or system HEK-293T
[8] = target: Bromodomain-containing protein 2 (Homo sapiens, UniProt P25440); assay: Inhibition of immobilized N-LY294002 bead binding to BRD2 (unknown origin) expressed in HEK293T cell nuclear extract incubated for 1 hr by LC-MS/MS analysis; parameters: species or system HEK-293T
[9] = target: Bromodomain-containing protein 3 (Homo sapiens, UniProt Q15059); assay: Inhibition of immobilized N-LY294002 bead binding to BRD3 (unknown origin) expressed in HEK293T cell nuclear extract incubated for 1 hr by LC-MS/MS analysis; parameters: species or system HEK-293T
[10] = target: T4, Receptor-type tyrosine-protein kinase FLT3 (Homo sapiens, UniProt P36888); assay: Inhibition of FLT3 (unknown origin)
T4 sequence (P36888 whole entry): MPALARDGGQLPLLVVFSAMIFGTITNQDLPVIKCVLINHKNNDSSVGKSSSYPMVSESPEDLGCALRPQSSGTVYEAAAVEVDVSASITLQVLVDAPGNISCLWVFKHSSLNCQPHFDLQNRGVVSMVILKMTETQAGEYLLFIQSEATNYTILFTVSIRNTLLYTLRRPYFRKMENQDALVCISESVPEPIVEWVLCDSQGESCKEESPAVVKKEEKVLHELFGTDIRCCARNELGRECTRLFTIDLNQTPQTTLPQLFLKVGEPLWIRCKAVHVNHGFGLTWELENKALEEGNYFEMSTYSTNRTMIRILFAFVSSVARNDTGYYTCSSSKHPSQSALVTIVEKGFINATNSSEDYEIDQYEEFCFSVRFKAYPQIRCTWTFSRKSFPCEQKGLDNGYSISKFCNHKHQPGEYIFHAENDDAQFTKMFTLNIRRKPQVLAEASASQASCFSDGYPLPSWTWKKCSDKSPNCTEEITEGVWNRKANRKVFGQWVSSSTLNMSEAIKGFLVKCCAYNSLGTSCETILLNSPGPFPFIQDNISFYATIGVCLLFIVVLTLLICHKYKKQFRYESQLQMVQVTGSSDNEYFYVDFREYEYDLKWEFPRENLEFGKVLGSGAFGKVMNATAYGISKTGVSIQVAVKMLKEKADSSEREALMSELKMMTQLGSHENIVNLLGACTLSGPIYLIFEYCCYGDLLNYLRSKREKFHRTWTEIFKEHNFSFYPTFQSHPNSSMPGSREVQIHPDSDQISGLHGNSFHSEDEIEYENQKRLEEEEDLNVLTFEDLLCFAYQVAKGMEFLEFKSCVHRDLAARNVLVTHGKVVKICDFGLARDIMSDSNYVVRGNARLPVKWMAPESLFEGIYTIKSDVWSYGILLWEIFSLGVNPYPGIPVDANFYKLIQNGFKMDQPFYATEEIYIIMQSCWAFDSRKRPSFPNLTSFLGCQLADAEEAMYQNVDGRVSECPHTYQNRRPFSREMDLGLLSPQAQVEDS

[11] = target: Casein kinase I isoform epsilon (Homo sapiens, UniProt P49674); assay: Inhibition of human CK1epsilon using casein as substrate in presence of [gamma-32P]-ATP
[12] = Inhibition of porcine brain tubulin polymerization measured every min for 1 hr by fluorescence assay; parameters: species or system Sus scrofa
[13] = target: Casein kinase I isoform delta (Homo sapiens, UniProt P48730); assay: Inhibition of human CK1delta using casein as substrate in presence of [gamma-32P]-ATP
[14] = Inhibition of tubulin (unknown origin) polymerization by spectrophotometric method; parameters: species or system Homo sapiens
[15] = target: T5, Ribosyldihydronicotinamide dehydrogenase [quinone] (Homo sapiens, UniProt P16083)
T5 sequence (P16083 whole entry): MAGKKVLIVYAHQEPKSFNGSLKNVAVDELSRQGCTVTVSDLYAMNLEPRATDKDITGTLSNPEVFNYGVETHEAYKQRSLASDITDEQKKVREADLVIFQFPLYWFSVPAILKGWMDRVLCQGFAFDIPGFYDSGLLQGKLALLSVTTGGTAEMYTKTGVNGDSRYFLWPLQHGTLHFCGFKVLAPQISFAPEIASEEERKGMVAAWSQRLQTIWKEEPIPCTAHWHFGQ
Description: Inhibition of kinobead binding to NQO2 in human K562 cells incubated for 30 mins by iTRAQ reagent-based mass spectrometric method

[16] = Inhibition of porcine brain tubulin polymerization measured every min during incubation by fluorescence assay; parameters: species or system Sus scrofa
[17] = target: Mitogen-activated protein kinase 14 (Mus musculus, UniProt P47811); assay: Inhibition of mouse N-terminal 5His-tagged p38alpha assessed as decrease in 6His-tagged MK2a (51 to 400 residues) phosphorylation in presence of [gamma-33P]-ATP by scintillation counting method
[18] = Inhibition of tubulin polymerization in human U87 cells assessed as decrease in cell viability after 72 hrs by Alamar blue assay; type: cell-based, U-87MG ATCC; conditions: U-87 MG
[19] = target: T6, Receptor-interacting serine/threonine-protein kinase 1 (Homo sapiens, UniProt Q13546); assay: Inhibition of recombinant human GST-fused RIPK1 (1 to 497 residues) expressed in baculovirus infected insect Sf9 cells in presence of 32P-gamma-ATP after 30 mins by autoradiogram-based Western blot method
T6 sequence (Q13546 whole entry): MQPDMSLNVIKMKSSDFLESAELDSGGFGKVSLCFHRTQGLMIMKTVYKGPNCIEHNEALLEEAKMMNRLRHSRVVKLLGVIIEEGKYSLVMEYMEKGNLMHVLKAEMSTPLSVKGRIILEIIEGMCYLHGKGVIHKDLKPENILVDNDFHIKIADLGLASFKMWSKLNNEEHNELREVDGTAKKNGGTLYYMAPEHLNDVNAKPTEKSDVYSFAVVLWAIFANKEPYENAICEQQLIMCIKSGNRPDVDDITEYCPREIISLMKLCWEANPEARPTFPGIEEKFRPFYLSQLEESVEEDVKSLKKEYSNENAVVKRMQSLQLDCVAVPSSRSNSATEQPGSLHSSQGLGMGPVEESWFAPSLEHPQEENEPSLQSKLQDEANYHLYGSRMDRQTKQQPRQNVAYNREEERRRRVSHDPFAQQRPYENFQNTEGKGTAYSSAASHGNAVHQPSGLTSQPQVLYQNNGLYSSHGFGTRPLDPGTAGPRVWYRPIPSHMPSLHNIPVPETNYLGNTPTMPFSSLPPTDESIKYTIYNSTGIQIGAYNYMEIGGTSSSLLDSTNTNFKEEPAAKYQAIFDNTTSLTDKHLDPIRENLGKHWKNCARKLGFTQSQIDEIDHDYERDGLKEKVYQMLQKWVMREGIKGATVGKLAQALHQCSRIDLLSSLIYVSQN

[20] = target: Indoleamine 2,3-dioxygenase 1 (Homo sapiens, UniProt P14902); assay: Inhibition of recombinant human IDO using L-tryptophan as substrate after 60 mins
[21] = target: MAP kinase-activated protein kinase 2 (Homo sapiens, UniProt P49137); assay: Inhibition of recombinant MK2 (45 to 400 residues) (unknown origin) using fluorescein isothiocyanate-KKKALSRQLSVAA as substrate
Sequence of MAP kinase-activated protein kinase 2 (P49137 whole entry, the tested form may be a part): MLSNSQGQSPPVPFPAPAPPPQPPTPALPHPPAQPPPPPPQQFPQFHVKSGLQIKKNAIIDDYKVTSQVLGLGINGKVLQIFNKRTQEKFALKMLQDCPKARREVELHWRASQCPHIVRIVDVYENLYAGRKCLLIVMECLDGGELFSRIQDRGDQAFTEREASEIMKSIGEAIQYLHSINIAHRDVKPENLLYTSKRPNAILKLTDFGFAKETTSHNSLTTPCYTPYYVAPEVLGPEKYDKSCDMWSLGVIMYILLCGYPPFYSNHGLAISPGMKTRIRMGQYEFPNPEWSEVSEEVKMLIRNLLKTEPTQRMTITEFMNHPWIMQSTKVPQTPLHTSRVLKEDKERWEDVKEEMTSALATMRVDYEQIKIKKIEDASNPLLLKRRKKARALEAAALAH

Sequence of Bromodomain-containing protein 2 (P25440 whole entry): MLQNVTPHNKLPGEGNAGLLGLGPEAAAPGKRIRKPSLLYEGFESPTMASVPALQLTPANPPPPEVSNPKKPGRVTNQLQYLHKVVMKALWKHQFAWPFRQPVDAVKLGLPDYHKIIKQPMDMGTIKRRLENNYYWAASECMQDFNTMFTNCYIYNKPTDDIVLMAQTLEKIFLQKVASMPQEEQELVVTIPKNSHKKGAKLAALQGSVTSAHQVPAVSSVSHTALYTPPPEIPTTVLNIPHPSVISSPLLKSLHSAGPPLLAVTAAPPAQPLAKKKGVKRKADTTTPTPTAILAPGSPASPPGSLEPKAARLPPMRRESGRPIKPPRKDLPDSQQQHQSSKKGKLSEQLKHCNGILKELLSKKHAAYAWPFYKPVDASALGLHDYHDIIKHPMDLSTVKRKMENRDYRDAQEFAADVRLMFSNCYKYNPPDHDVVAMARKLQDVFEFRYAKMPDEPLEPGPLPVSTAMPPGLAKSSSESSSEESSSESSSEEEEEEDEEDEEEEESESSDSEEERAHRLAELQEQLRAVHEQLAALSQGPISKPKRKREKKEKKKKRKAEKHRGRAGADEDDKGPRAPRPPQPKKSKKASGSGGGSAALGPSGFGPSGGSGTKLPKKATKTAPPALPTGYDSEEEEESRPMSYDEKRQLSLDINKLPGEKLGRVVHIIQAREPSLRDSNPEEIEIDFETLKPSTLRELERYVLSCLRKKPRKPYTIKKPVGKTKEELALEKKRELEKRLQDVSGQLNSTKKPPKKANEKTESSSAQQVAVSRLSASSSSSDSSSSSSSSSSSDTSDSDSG
Sequence of Bromodomain-containing protein 3 (Q15059 whole entry): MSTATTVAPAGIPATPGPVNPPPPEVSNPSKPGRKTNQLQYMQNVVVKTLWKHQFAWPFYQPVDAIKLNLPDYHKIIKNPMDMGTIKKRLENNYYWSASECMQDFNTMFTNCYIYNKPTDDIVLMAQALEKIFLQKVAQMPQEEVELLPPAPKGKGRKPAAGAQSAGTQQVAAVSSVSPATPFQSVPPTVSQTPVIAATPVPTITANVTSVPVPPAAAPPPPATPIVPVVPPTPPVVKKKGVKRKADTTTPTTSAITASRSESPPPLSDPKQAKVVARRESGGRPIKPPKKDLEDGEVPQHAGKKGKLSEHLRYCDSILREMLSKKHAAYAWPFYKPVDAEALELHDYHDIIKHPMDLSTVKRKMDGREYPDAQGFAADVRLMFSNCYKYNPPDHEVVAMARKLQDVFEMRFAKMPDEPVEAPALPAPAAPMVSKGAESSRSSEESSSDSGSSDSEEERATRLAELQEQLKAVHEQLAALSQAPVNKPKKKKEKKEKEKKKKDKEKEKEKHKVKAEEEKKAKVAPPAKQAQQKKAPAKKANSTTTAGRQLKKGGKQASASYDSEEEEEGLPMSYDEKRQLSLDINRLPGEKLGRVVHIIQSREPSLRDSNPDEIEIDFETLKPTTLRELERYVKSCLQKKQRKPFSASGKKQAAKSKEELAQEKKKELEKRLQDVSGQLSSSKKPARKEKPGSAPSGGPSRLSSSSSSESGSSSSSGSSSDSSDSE
Sequence of Casein kinase I isoform epsilon (P49674 whole entry, canonical isoform): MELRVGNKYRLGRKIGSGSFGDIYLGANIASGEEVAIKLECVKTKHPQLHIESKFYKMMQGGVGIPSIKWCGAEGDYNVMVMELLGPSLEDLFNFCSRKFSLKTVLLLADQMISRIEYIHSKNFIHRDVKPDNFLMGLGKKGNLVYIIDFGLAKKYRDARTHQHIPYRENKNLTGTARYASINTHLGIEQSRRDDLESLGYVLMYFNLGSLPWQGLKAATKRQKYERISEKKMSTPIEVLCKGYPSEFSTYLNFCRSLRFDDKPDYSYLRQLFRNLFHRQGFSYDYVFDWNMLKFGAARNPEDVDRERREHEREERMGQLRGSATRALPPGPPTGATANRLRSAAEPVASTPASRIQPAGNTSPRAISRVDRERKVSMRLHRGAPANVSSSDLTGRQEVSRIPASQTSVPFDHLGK
Sequence of Casein kinase I isoform delta (P48730 whole entry, canonical isoform): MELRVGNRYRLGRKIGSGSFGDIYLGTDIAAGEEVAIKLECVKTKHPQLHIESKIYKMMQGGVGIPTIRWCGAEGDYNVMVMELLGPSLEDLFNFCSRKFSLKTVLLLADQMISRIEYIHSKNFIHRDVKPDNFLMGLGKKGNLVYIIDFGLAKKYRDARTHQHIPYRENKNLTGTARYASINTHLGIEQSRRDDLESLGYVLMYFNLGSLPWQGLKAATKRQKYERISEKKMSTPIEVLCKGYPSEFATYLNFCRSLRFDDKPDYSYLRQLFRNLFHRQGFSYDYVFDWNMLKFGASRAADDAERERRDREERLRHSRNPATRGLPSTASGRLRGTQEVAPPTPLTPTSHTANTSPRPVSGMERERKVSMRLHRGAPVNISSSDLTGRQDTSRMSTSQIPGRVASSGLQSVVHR
Sequence of Indoleamine 2,3-dioxygenase 1 (P14902 whole entry, the tested form may be a part): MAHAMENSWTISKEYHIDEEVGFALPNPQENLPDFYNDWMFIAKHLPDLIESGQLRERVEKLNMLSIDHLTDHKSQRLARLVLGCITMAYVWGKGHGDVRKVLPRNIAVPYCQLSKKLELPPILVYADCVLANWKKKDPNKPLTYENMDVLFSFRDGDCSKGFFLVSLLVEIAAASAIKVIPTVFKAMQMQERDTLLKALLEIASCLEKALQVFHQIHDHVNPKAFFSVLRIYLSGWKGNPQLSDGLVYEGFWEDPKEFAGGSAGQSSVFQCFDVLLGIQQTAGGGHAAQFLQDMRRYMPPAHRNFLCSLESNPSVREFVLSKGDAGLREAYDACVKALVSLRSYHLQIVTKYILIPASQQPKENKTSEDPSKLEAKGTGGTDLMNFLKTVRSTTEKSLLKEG
Sequence of Mitogen-activated protein kinase 14 (P47811 whole entry, the tested form may be a part): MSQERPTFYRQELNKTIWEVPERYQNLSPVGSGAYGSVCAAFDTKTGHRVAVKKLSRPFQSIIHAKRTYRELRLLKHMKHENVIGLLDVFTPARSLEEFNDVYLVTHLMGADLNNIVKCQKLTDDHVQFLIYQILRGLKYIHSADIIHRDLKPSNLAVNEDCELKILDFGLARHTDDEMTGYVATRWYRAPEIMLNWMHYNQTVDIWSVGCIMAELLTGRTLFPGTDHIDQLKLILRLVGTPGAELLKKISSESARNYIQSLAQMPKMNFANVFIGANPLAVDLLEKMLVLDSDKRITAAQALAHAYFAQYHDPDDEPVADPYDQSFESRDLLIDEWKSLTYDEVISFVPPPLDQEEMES

## CN(c1ccccc1CNc1nc(Nc2ccc3c(c2)CC(=O)N3)ncc1C(F)(F)F)S(C)(=O)=O
[1]
  pKd: 6.35

## CCCS(=O)(=O)Nc1ccc(F)c(C(=O)c2c[nH]c3ncc(-c4ccc(Cl)cc4)cc23)c1F [VEMURAFENIB]
[2]
  pEC50: 5.30

## CC1(C)CC2CC(C)(CN2c2ncnc3[nH]cnc23)C1 (configuration not stated)
[3]
  pIC50: 6.66 to 7.00

## Oc1ccc(-c2nc(-c3ccc(F)cc3)c(-c3ccncc3)[nH]2)cc1 [SB-202190]
[1]
  pKd: 5.47

## C[S+]([O-])c1ccc(-c2nc(-c3ccc(F)cc3)c(-c3ccncc3)[nH]2)cc1 (configuration not stated)
[4]
  ΔTm: 1.3 °C
[5]
  ΔTm: 0.85 °C

## O=c1cc(N2CCOCC2)oc2c(-c3ccccc3)cccc12 [LY-294002]
[6]
  pIC50: 5.82
[7]
  pIC50: 4.91
[8]
  pIC50: 4.99
[9]
  pIC50: 4.86

## Cc1cnc(Nc2ccc(N3CCN(C)CC3)cc2)nc1Nc1cccc(S(=O)(=O)NC(C)(C)C)c1
[10]
  pIC50: 7.60

## COc1cc(OC)c(/C=C2/C(=O)Nc3ccccc32)c(OC)c1
[11]
  pIC50: 4.60 to 6.00
[12]
  pEC50: > 6.00
[13]
  pIC50: 4.60 to 6.00

## CC[C@@H]1C(=O)N(C)c2cnc(Nc3ccc(C(=O)N[C@H]4CC[C@H](N5CCN(CC6CC6)CC5)CC4)cc3OC)nc2N1C(C)C [VOLASERTIB]
[1]
  pKd: 7.10

## O=C(c1ccccc1-c1ccccc1)N1CCc2c([nH]c3ccccc23)C1
[14]
  pEC50: > 6.00

## Cc1cn(-c2cc(NC(=O)c3ccc(C)c(Nc4nccc(-c5cccnc5)n4)c3)cc(C(F)(F)F)c2)cn1 [NILOTINIB]
[15]
  pIC50: 5.74

## O=C1NC(=O)[C@@H](c2cn3c4c(cccc24)CCC3)[C@@H]1c1c[nH]c2ccccc12 [TIVANTINIB]
[16]
  pEC50: > 6.00

## Nc1nc(NCCc2ccccc2)c2nc[nH]c2n1
[3]
  pIC50: 6.66 to 7.00

## O=C(CCCc1ccc(-c2ccccc2F)cc1)Nc1ccc(O)cc1
[17]
  pIC50: 6.48
[18]
  pEC50: > 6.00

## CN1C(=O)C(Cc2c[nH]c3ccccc23)NC1=S (configuration not stated) [NECROSTATIN]
[19]
  pIC50: 6.74
[20]
  pIC50: 3.94

## Cc1ccc(-c2ccc3c(ccc4sc5c(c43)NC[C@@H](C)NC5=O)n2)cn1
[21]
  pKi: 8.30

## O=c1cc(N2CCNCC2)oc2c(-c3ccccc3)cccc12
[7]
  pIC50: 5.04
[8]
  pIC50: 5.13
[9]
  pIC50: 4.94
